The values that follow are results of earlier work, collected in patent US7217714B1, “CCR5 modulators” (Agouron Pharmaceuticals, Inc., priority 1998, dated 2007).

One data set has as its system CCR5-tropic strains. As to conditions: Baba et al. PNAS 1999.
Data set [1] concerns CXCR4 dependent primary and lab-adapted HIV viruses. The settings on record: susceptible cultures.

Take `Cc1ccc(-c2ccc3c(c2)C=C(C(=O)Nc2ccc(C[N+](C)(C)C4CCOCC4)cc2)CCC3)cc1.[Cl-]` [TAK 779]: in the data set on CCR5-tropic strains, the “block of entry of CCR5-tropic strains” value is “blocks entry”.

Turning to “SDF-1: "the chemokines RANTES, MIP-1α, MIP-1β, SDF-1 have been shown to suppress replication of primary HIV isolates"”, in the data set with primary HIV isolates, the “suppression of replication of primary HIV isolates” value (“suppression” below) was “suppress replication”.

On to `c1cc(CN2CCCNCCNCCCNCC2)ccc1CN1CCCNCCNCCCNCC1` [AMD3100], for which, in data set [1], the “inhibition of infection by CXCR4 dependent HIV” value is on record as “inhibit infection”.

B1: MIP-1α: "the macrophage inflammatory proteins (MIP) designated MIP-1α and MIP-1β" (protein, UniProt P10147 24-92, looked up)
C-C motif chemokine 3: SLAADTPTACCFSYTSRQIPQNFIADYFETSSQCSKPGVIFLTKRSRQVCADPSEEWVQKYVSDLELSA
As for B1, the “suppression” value with primary HIV isolates was “suppress replication”.

B2: MIP-1β: "the macrophage inflammatory proteins (MIP) designated MIP-1α and MIP-1β" (protein, UniProt P13236 24-92, looked up)
C-C motif chemokine 4: APMGSDPPTACCFSYTARKLPRNFVVDYYETSSLCSQPAVVFQTKRSKQVCADPSESWVQEYVYDLELN
In the case of B2, the “suppression” value with primary HIV isolates was “suppress replication”.

B3: RANTES: "a protein which is regulated upon activation and is normal T-cell expressed and secreted (RANTES)" (protein, UniProt P13501 24-91, looked up)
C-C motif chemokine 5: SPYSSDTTPCCFAYIARPLPRAHIKEYFYTSGKCSNPAVVFVTRKNRQVCANPEKKWVREYINSLEMS
As to B3, the “suppression” value in the data set on primary HIV isolates is given as “suppress replication”.
